Test results from US8362000B2, “Azetidinyl diamides as monoacylglycerol lipase inhibitors” (Janssen Pharmaceutica NV, priority 2009, dated 2013).
Numbering of substitutions follows the chain as printed. Where two headings read alike, the source gives them in different places.

Key:
[1] = target: T1, MGL (Rattus norvegicus, UniProt Q8R431); assay: 2-AG accumulation assay in rat brain homogenate; type: biochemical; conditions: rat brain homogenate, 2-AG accumulation as percent of vehicle; for 2-AG accumulation, % of vehicle control at 1 µM: compound 1 μM, read-out: Rat Brain 2AG % VehCntrl (%) @ 1 μM
T1 construct: one g rat brain was homogenized using a Polytron homogenizer; from tissue; host or cells: rat brain homogenate
T1 sequence (Q8R431 1-303): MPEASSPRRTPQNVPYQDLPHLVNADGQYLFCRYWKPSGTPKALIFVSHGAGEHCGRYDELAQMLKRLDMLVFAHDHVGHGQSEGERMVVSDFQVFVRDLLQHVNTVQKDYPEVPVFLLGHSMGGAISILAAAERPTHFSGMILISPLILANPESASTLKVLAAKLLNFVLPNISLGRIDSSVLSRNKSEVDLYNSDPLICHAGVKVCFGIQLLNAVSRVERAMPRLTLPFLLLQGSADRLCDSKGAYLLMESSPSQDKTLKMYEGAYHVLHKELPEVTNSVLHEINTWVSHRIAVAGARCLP

[2] = target: T2, mutant MGL (Homo sapiens, UniProt Q99685, L169S/L176S); assay: MGL ThermoFluor assay - mutant; type: binding
T2 sequence (Q99685 1-303 L169S/L176S): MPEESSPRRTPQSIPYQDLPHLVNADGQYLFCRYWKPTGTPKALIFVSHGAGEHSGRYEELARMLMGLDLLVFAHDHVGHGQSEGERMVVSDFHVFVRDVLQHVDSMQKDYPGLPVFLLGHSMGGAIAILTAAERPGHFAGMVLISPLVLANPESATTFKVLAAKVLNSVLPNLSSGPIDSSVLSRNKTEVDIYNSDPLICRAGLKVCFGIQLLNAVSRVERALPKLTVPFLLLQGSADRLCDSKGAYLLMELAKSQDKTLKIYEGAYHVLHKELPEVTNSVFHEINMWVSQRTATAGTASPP

[3] = target: T3, purified wild type MGL (wt-MGLL 6H-11-313) (Homo sapiens, UniProt Q99685)
T3 sequence (Q99685 1-303): T2 sequence (Q99685 1-303 L169S/L176S) with S169L, S176L

[4] = ThermoFluor concentration-response, read-out: MGL mutant ThermoFluor Kd
[5] = ThermoFluor thermal stability binding assay, read-out: MGL mutant ThermoFluor Kd
[6] = ThermoFluor, compound concentration measured by qNMR, read-out: MGL mutant ThermoFluor qKd (using qNMR conc.)

| SMILES | 2-AG accumulation, % of vehicle control at 1 µM [1] [%] | Kd [2, 4] [µM] | IC50 [3] [nM] | 2-AG accumulation, % of vehicle control at 0.1 µM ([1]; compound 0.1 μM, read-out: Rat Brain 2AG % VehCntrl (%) @ 0.1 μM) [%] | 2-AG accumulation, % of vehicle control at 10 µM ([1]; compound 10 μM, read-out: Rat Brain 2AG % VehCntrl (%) @ 10 μM) [%] | Kd [2, 5] [µM] | Kd [2, 6] [µM] | Kd ([2]; ThermoFluor, compound concentration measured by qNMR, read-out: MGL mutant ThermoFluor qKd (μM) (using qNMR conc.)) [µM] |
| --- | --- | --- | --- | --- | --- | --- | --- | --- |
| O=C(c1ccc(-c2ccccc2)cc1)N1CCN(C2CN(C(=O)c3nccs3)C2)CC1 [Cpd 1236, 1-(Biphenyl-4-ylcarbonyl)-4-[1-(1,3-thiazol-2-ylcarbonyl)azetidin-3-yl]piperazine] | 167 | 0.031 | 390 | – | – | – | – | – |
| COc1cc(C(=O)N2CC(N3CCN(C(=O)c4cscn4)CC3)C2)ccc1-c1ccccc1 [Cpd 1253] | 190 | 0.088 | 725 | 110 | 407 | – | – | – |
| O=C(c1cscn1)N1CCN(C2CN(C(=O)c3cccc4nc(-c5cccc(F)c5)oc34)C2)CC1 [Cpd 1254] | 187 | – | 765 | – | – | 0.1 | – | – |
| O=C(c1cc(-c2ccccc2)cc(C(F)(F)F)c1)N1CC(N2CCN(C(=O)c3cscn3)CC2)C1 [Cpd 1259] | 159 | 0.667 | 847 | – | – | – | – | – |
| COc1ccc(C(=O)N2CC(N3CCN(C(=O)c4cscn4)CC3)C2)cc1-c1ccccc1 [Cpd 1265] | 192 | 0.66 | 1050 | – | – | – | – | – |
| O=C(c1cscn1)N1CCN(C2CN(C(=O)c3cccc4nc(-c5ccc(F)cc5)oc34)C2)CC1 [Cpd 1282] | 128 | – | 2070 | – | – | 0.2 | – | – |
| O=C(c1ccc(-c2ccccc2)cc1)N1CCN(C2CN(C(=O)c3ncco3)C2)CC1 [Cpd 1283, 1-(Biphenyl-4-ylcarbonyl)-4-[1-(1,3-oxazol-2-ylcarbonyl)azetidin-3-yl]piperazine] | 62 | 0.523 | 2170 | – | – | – | – | – |
| O=C(c1ccc2c(ccn2-c2ccc(C(F)(F)F)nc2)c1)N1CC(N2CCN(C(=O)c3nccs3)CC2)C1 [Cpd 1312, 5-({3-[4-(1,3-Thiazol-2-ylcarbonyl)piperazin-1-yl]azetidin-1-yl}carbonyl)-1-[6-(trifluoromethyl)pyridin-3-yl]-1H-indole] | 963 | – | < 5 | – | – | – | 0.008 | – |
| O=C(c1ccc2c(ccn2-c2ccc(Cl)cn2)c1)N1CC(N2CCN(C(=O)c3nccs3)CC2)C1 [Cpd 1313, 1-(5-Chloropyridin-2-yl)-5-({3-[4-(1,3-thiazol-2-ylcarbonyl)piperazin-1-yl]azetidin-1-yl}carbonyl)-1H-indole] | 851 | 0.003 | < 5 | – | – | – | 0.001 | – |
| O=C(c1nccs1)N1CCN(C2CN(C(=O)c3sc4ccc(-c5ccccc5)cc4c3F)C2)CC1 [Cpd 1315, 1-{1-[(3-Fluoro-5-phenyl-1-benzothiophen-2-yl)carbonyl]azetidin-3-yl}-4-(1,3-thiazol-2-ylcarbonyl)piperazine] | 486 | 0.002 | < 5 | – | – | – | – | – |
| O=C(c1ccc2c(-c3ccccc3)c[nH]c2c1)N1CC(N2CCN(C(=O)c3nccs3)CC2)C1 [Cpd 1316] | 602 | 0.002 | < 5 | – | – | – | – | – |
| O=C(c1ccc2c(-c3ccc(F)cc3)c[nH]c2c1)N1CC(N2CCN(C(=O)c3nccs3)CC2)C1 [Cpd 1317, 3-(4-Fluorophenyl)-6-({3-[4-(1,3-thiazol-2-ylcarbonyl)piperazin-1-yl]azetidin-1-yl}carbonyl)-1H-indole] | 722 | 0.002 | < 5 | – | – | – | – | – |
| O=C(c1nccs1)N1CCN(C2CN(C(=O)c3cccc4c3ccn4-c3ccc(F)cc3)C2)CC1 [Cpd 1320, 1-(4-Fluorophenyl)-4-({3-[4-(1,3-thiazol-2-ylcarbonyl)piperazin-1-yl]azetidin-1-yl}carbonyl)-1H-indole] | 823 | – | < 5 | – | – | – | – | 0.015 |
| Cc1cc(C(=O)N2CC(N3CCN(C(=O)c4nccs4)CC3)C2)ccc1-c1ccccc1 [Cpd 1322, 1-{1-[(2-Methylbiphenyl-4-yl)carbonyl]azetidin-3-yl}-4-(1,3-thiazol-2-ylcarbonyl)piperazine] | 457 | 0.002 | < 5 | – | – | – | – | – |
